Measurements: patent US7642066B2, “High throughput pharmaceutical screening using drosophila” (Washington University, priority 2004, dated 2010)
“Also recorded” adds a separate entry of the source.

Columns and labels:
wild-type Drosophila [1] = test system: wild-type Drosophila; design: species or system Drosophila melanogaster; conditions: in vivo
Method: (§1) Into each well is pipetted 50-400 μl of either standard (control) or high glucose (experimental) Drosophila growth medium. A range of 50-400 μl is a balance between (1) providing sufficient food so as not to place undue feeding stress on the developing flies and (2) providing sufficient air space for the third larval instars to find sufficient wall space to pupate. Any one of several standard Drosophila growth medium recipes as known in the art of breeding Drosophila for research can be used. A known recipe for a standard growth medium includes, for example, water: 1 liter, cornmeal: 61 grams, yeast: 32 grams, agar: 9.3 grams, glucose: 129 grams (or molasses: 67 grams), methyl p-hydrobenzoate: 2.7 grams, and propionic acid: 0.05 liters. A high glucose growth medium is, for example, such a standard Drosophila growth medium supplemented with an additional 1 mole glucose. For example, to prepare a high glucose growth medium, an additional 180 grams of glucose is added to the recipe for standard growth medium as just described. Another embodiment, for example, of a standard growth medium is that prepared as follows: 1 gram agar, 8 grams brewers yeast, 2 grams yeast extract, 2 grams peptone, 3 grams sucrose, 6 grams glucose, 0.05 grams MgSO4×6H20, 0.05 grams CaCl2×2H20, 600 microliters propionic acid, 1 milliliter 10% p-Hydroxy-benzoic acid methyl ester in 95% ethanol, brought to 100 milliliters with water. A high glucose version of this medium is made, for example, by combining 75 milliliters of this medium with 25 milliliters of a 4 molar glucose solution in water.
Alternatively, the experimental growth medium is any growth medium containing an excess amount of a sugar or sugars selected from hexose sugars such as fructose, sorbitol, galactose and glucosamine, and from complex sugars such as sucrose, lactose or maltose.
The addition of 1 molar (1 M) glucose to the Drosophila growth media delayed pupariation, which reached significant levels at day 10 and high levels at day 11.
The developmental arrest can be screened as described in the Examples, infra. Glucose, for example, induces readily observable delays in pupariation as determined by the timing of significant eclosion, and peak eclosion. For example, control Drosophila embryos show significant eclosion beginning at day 8, while Drosophila embryos exposed to high glucose growth medium show significant eclosion beginning at day 11 (1 molar glucose). Similarly, peak eclosion is delayed, for example, from day 10 in controls, to day 12 (1 molar glucose). Thus, candidate compounds are screened by observing changes to the delay in significant eclosion and peak eclosion, as compared to the developmental delay induced by high glucose.
Accordingly, the ability of the hexose sugars fructose, sorbitol, galactose and glucosamine was tested by adding amounts of each sugar to the standard Drosophila growth medium. Fructose and sorbitol induced a 48-hour developmental delay at concentrations similar to those at which glucose induced developmental delay (data not shown).

wild-type Drosophila [2] = assay: Drosophila high throughput screen: effect of compound on glucose-mediated delay in pupariation; assay type: in vivo, Drosophila melanogaster; conditions: for effect on glucose-mediated developmental delay / delay in pupariation: high glucose (1 M glucose in growth media); for significant levels of pupariation / high levels of pupariation: 1 M glucose, FIG. 2
Method: Accordingly, methods and related articles of composition for high throughput screening assays involve the preparation of microtiter plates each with multiple wells, wherein each well initially contains one or more wild type Drosophila embryos and an amount of a high glucose Drosophila growth medium. The embryos develop while feeding on the high glucose growth medium. The precise age of the embryos at the time they are plated matters less than the fact that they are all about the same age, to permit accurate evaluation of the possible effects of the candidate compound on larval development.
To prepare the microtiter plates, for example, 96-well microtiter plates are used, such as those commonly commercially available and typically used for various laboratory assay techniques, including other high throughput drug assay techniques. A suitable example is a Falcon #3912 flexible 96-well plate. However, other multiple-well microtiter plates can be used.
as §1
A candidate compound, or cocktail of more than one compound, that has been selected for screening is dissolved in EtOH or prepared in DMSO/Aqueous solution. In an exemplary embodiment, EtOH is used. Although DMSO can be used, it can be toxic if it reaches final concentrations of more than 0.3% of the growth medium. The compound in solution is added and allowed to diffuse through the growth medium for an initial period of about 16-24 hours. Wild type Drosophila embryos are collected en masse and, after the initial period of diffusion of the candidate compound through the growth medium, sorted several to a well. In an exemplary embodiment, five to twenty embryos are sorted to each well. However, the number of embryos in each well can easily vary, provided that no more embryos than will flourish in the well are used. The number of embryos per well will also be influenced by the need to obtain a sufficient number of data points to make the test meaningful.
Once the Drosophila embryos are placed into each well on the growth medium, they hatch out and begin feeding after a second period of about 24 hours, bringing the final amount of diffusion time for the subject compound to about 40-48 hours. A period of about 24-48 hours is sufficient for full diffusion of most compounds. […] Finally, each well is sealed with a sealing film such as “Aeraseal Sealing Film” (available from Sigma-Aldrich, St. Louis, Mo.; Sigma #A-9224). […]

[3] = 0.375 mg/ml of food, 1 molar glucose, FIG. 3
[4] = 0.75 mg/ml of food, 1 molar glucose, FIG. 3

For `N[C@H]1C(O)O[C@H](CO)[C@@H](O)[C@@H]1O` (stereo partly shown) [glucosamine], the “concentration inducing a developmental delay (as low as)” value (wild-type Drosophila [1]; Drosophila melanogaster) was 3000 µM, the “developmental delay with progressively higher levels” value (wild-type Drosophila [1]) was “progressively longer developmental delays” and the larval emergence (wild-type Drosophila [1]) was “most larvae failed to emerge”.
With `O=C[C@H](O)[C@@H](O)[C@@H](O)[C@H](O)CO` [galactose] the “concentration at which toxicity is demonstrated” value (wild-type Drosophila [1]; Drosophila melanogaster) was 0.3 M.
`CC(C)[C@H]1CC[C@H](C(=O)N[C@H](Cc2ccccc2)C(=O)O)CC1` [nateglinide] was tested, and the “effect on rate of development” value (wild-type Drosophila [2]; [3]) was “partially restored the rate of development”, the “pupariation high rates beginning” value (wild-type Drosophila [2]; [3]) was 9 days and the “effect on rate of development” value (wild-type Drosophila [2]; [4]) was “intermediate result”. The “pupariation high levels beginning” value (wild-type Drosophila [2]; [4]) was 9 days and the “effect on glucose-mediated developmental delay / delay in pupariation” value (wild-type Drosophila [2]) was “demonstrated an ability to ameliorate glucose-mediated developmental delay”.
`O=C(CO)[C@@H](O)[C@H](O)[C@H](O)CO` [fructose] was tested, and the developmental delay induced (wild-type Drosophila [1]; Drosophila melanogaster) was 48 h.
`OC[C@@H](O)[C@@H](O)[C@H](O)[C@@H](O)CO` [sorbitol] was tested, and the developmental delay induced (wild-type Drosophila [1]; Drosophila melanogaster) was 48 h.
For `COc1ccc(Cl)cc1C(=O)NCCc1ccc(S(=O)(=O)NC(=O)NC2CCCCC2)cc1` [glyburide], the “significant levels of pupariation” value (wild-type Drosophila [2]; 0.25 mg per ml of growth media, no-drug 1 M glucose control approximately day 12) was 8 days, the “high levels of pupariation” value (wild-type Drosophila [2]; 0.25 mg per ml of growth media, no-drug 1 M glucose control day 13-14) was at most 10 days and the “high levels of pupariation” value (wild-type Drosophila [2]; 1 mg per ml of growth media) was 11 days. For the same molecule, the “significant levels of pupariation” value (wild-type Drosophila [2]; 1 mg per ml of growth media) was 11 days and the “effect on glucose-mediated developmental delay / delay in pupariation” value (wild-type Drosophila [2]) was “demonstrated an ability to ameliorate glucose-mediated developmental delay; also recorded: reduced glucose-mediated delay in pupariation”.
